Entries after “also recorded” stand apart in the source; their conditions may differ. Read-outs that look alike come from different tables or passages of the source.
Experiments:
Nodal receptors [1] = assay: Block of Nodal signaling with SB-505124 in Tg-SqtapGFPi embryos, gfp in situ hybridization; type: in vivo, zebrafish; conditions: 50 μM
Nodal receptors [2] = conditions: cited from earlier work
sqt and cyc transcripts = assay: Targeted injection of morpholinos into the YSL, morphology of live embryos; type: in vivo, zebrafish; conditions: 8 ng MO into YSL at 3 hpf
Method: Wild-type embryos were obtained from natural crosses of Wik fish. Collected embryos were maintained at 28.5° C. and staged according to morphological criteria (Kimmel et al., Dev. Dyn., 203:253-310 (1995). Translation blocking morpholinos against sqt and cyc have been described previously (Feldman and Stemple, Genesis, 30: 175-177 (2001); Karlen and Rebagliati, Genesis, 30: 126-128 (2001). The MO sequences are as follows: sqtMO: 5′-[…]-3′ (SEQ ID NO:1); sqtMIS: ATcTgAAAATgAAGcTAATAATgCAC-3′ (SEQ ID NO:2); cycMO: 5′-[…]-3′ (SEQ ID NO:3); cycMIS: 5′-GCcACTgCGAaGTGTGgTcAT-3′(SEQ ID NO:4). Nucleotides in lower case represent mismatches. The sqtMOs were tagged with lissamine, while the cycMOs were tagged with fluorescein. Embryos were injected with each MO at 3 hpf soon after formation of the YSL. The distribution of the MO in the YSL was verified 2 h after injection. Embryos with mislocalized MOs were removed from the experiments.
To test if sqt and cyc are required in the YSL, their function in this tissue was specifically knocked down by targeted injection of antisense morpholinos (MOs) directed against sqt and cyc transcripts. […] When cyc function alone is depleted from the YSL, all embryos have normal shields (100%, N=36) (FIG. 5E, arrow). At 24 hpf, the cyc-depleted embryos, are indistinguishable from embryos injected with control MOs (100%, N=22) (FIG. 5F). When sqt function is depleted from the YSL, by contrast, the majority of embryos lack the embryonic shield ([…], N=11) (FIG. 5G).

Cc1cccc(-c2[nH]c(C(C)(C)C)nc2-c2ccc3c(c2)OCO3)n1 [SB-505124]
gfp expression in the EVL (Nodal receptors [1]): reduced, but not eliminated; also recorded: reduced to a greater extent | gfp expression in the YSL (Nodal receptors [1]): consistently reduced, but not completely eliminated; also recorded: persists | gfp expression in the blastomeres (Nodal receptors [1]): eliminated; also recorded: reduced to a greater extent | overall levels of gfp expression (Nodal receptors [1]): reduced | phenotype of treated embryos (Nodal receptors [2]; 50 μM, added to embryos at 3 hpf or earlier): sufficient to phenocopy embryos lacking nodal-related gene function | phenotype of treated embryos (Nodal receptors [2]; later treatments, or lower doses): milder phenotypes

cycMO: translation blocking morpholino against cyc, 5′-GCGACTCCGAGCGTGTGCATGATG-3′ (SEQ ID NO:3), tagged with fluorescein (all phosphorodiamidate morpholino (PMO); fluorescein tag, position not given here)
embryos with normal shields (sqt and cyc transcripts; 6 hpf): 100% | embryos indistinguishable from embryos injected with control MOs (sqt and cyc transcripts; 24 hpf): 100%

sqtMO: translation blocking morpholino against sqt, 5′-ATGTCAAATCAAGGTAATAATCCAC-3′ (SEQ ID NO:1), tagged with lissamine (all phosphorodiamidate morpholino (PMO); lissamine tag, position not given here)
embryos lacking the embryonic shield (sqt and cyc transcripts; 6 hpf): 54% | embryos displaying mild cyclopia (sqt and cyc transcripts; 24 hpf): 16%
